Assay results as given in ChEMBL document CHEMBL4334512, “Rationally Designed, Conformationally Constrained Inverse Agonists of RORγt-Identification of a Potent, Selective Series with Biologic-Like in Vivo Efficacy” (J Med Chem, 2019).

Columns and labels:
[1] = Volume of distribution at steady state in rat at 2 mg/kg, iv; type: ADME, organism-based; details: in vivo, read-out: Vdss
[2] = biological target: T1, Nuclear receptor ROR-gamma (Mus musculus, UniProt P51450); test: Inverse agonist activity at RORgammat in CD3/CD28/IL-1/IL-23-stimulated C57/B6 mouse whole blood assessed as reduction in IL17A production incubated for 1 hr before stimulation with CD3/CD28/IL-1/IL-23 for 24 hrs by AlphaLISA method; type: tissue-based
T1 sequence (P51450 whole entry): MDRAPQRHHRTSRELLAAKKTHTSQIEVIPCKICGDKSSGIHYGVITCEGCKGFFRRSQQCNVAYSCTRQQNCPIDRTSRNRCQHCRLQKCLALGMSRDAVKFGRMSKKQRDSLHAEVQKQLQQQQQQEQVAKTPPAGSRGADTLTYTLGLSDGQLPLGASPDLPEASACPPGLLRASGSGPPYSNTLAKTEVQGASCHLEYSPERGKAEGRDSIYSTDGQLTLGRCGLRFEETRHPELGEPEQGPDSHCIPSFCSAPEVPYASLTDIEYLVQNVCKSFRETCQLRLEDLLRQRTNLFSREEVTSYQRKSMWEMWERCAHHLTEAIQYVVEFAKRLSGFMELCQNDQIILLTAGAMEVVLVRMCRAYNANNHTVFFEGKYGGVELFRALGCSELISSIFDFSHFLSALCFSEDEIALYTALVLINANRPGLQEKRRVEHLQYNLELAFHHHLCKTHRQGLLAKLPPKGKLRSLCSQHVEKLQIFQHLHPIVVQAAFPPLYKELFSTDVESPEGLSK

[3] = Total AUC in mouse at 4 mg/kg, po; type: ADME, organism-based; set-up: dose 4 mg/kg, route oral, time AUCmax; details: in vivo
[4] = Oral bioavailability in rat at 4 mg/kg; type: ADME, organism-based; details: in vivo
[5] = biological target: T2, Oxysterols receptor LXR-alpha (Homo sapiens, UniProt Q13133); test: Activity at LXRalpha (unknown origin)
T2 sequence (Q13133 whole entry): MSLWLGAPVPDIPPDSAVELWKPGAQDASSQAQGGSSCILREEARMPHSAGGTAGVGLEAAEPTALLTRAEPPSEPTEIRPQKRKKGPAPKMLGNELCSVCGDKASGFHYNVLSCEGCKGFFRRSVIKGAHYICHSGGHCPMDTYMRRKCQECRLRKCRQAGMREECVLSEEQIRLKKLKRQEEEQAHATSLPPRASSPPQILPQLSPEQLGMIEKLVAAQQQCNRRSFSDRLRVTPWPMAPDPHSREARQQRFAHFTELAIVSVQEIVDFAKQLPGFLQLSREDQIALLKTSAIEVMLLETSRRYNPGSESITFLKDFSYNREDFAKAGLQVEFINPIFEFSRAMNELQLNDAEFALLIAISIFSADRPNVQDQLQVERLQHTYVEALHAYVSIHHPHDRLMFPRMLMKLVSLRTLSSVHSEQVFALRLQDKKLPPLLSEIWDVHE

[6] = Cmax in Balb/c mouse at 10 mg/kg, po; type: ADME, organism-based; set-up: dose 10 mg/kg, route oral; details: in vivo
Mus musculus [7] = test: Suppression of IL-22 RNA expression in skin region of mouse model of IL-23 induced acanthosis model of psoriasis at 10 mg/kg, po BID for 10 days measured every other day relative to control; type: functional; details: 240 h
Cytochrome P450 3A4 = Cytochrome P450 3A4 (Homo sapiens, UniProt P08684); test: Inhibition of recombinant CYP3A4 (unknown origin) using BFC substrate; type: ADME
[8] = Half life in rat liver microsomes; type: ADME, Microsome
[9] = Volume of distribution at steady state in dog at 1 mg/kg, iv; type: ADME, organism-based, Canis lupus familiaris; details: in vivo, read-out: Vdss
Mus musculus [10] = test: Suppression of ear thickness in mouse model of IL-23 induced acanthosis model of psoriasis at 10 mg/kg, po BID for 10 days measured every other day relative to anti-IL-23 positive control; type: functional
Cytochrome P450 2C9 = Cytochrome P450 2C9 (Homo sapiens, UniProt P11712); test: Inhibition of recombinant CYP2C9 (unknown origin); type: ADME
[11] = Unbound fraction in human serum; type: ADME, cell-free
[12] = Half life in dog at 1 mg/kg, iv; type: ADME, organism-based, Canis lupus familiaris; details: in vivo
Mus musculus [13] = test: Suppression of ear thickness in mouse model of IL-23 induced acanthosis model of psoriasis at 3 mg/kg, po BID for 10 days measured every other day relative to control; type: functional; details: 240 h
[14] = Half life in rat at 2 mg/kg, iv; type: ADME, organism-based; details: in vivo
[15] = Drug level in Balb/c mouse at 10 mg/kg, po after 24 hrs; type: ADME, organism-based; details: in vivo, read-out: Drug uptake
Cytochrome P450 1A2 = biological target: T3, Cytochrome P450 1A2 (Homo sapiens, UniProt P05177); test: Inhibition of recombinant CYP1A2 (unknown origin); type: ADME
T3 sequence (P05177 whole entry): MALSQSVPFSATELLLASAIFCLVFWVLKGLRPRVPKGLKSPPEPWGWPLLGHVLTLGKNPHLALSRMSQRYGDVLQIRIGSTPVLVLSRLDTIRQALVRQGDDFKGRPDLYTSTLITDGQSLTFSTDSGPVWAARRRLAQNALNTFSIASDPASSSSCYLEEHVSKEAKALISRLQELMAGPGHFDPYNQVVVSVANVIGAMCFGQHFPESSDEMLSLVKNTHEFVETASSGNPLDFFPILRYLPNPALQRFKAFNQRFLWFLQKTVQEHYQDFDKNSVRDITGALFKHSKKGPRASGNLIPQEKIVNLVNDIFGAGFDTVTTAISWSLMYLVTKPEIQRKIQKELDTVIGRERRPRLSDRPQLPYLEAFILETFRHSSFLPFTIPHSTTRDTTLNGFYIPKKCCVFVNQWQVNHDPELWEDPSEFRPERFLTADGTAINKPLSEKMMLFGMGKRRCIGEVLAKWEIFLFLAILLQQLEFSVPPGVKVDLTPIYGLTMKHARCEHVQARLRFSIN

[16] = biological target: T4, Oxysterols receptor LXR-beta (Homo sapiens, UniProt P55055); test: Agonist activity at LXRbeta (unknown origin) by Gal4-Luc reporter gene assay
T4 sequence (P55055 whole entry): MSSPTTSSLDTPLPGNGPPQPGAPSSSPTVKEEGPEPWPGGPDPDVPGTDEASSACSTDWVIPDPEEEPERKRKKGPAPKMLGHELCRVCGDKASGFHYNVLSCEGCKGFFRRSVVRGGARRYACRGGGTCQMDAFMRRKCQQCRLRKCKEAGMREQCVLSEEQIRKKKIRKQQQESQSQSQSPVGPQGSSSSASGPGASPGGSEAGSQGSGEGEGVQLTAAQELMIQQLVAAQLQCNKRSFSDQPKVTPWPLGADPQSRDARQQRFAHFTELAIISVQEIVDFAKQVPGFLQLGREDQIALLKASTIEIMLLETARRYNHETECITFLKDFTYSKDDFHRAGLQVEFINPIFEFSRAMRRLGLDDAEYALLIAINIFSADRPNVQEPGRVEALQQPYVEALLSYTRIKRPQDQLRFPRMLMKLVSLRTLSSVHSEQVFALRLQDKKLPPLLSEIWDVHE

Mus musculus [17] = test: Suppression of IL-17F RNA expression in skin region of mouse model of IL-23 induced acanthosis model of psoriasis at 3 to 30 mg/kg, po BID for 10 days measured every other day; type: functional
[18] = Clearance in rat at 2 mg/kg, iv; type: ADME, organism-based; details: in vivo

Sequence of Cytochrome P450 2C9 (P11712 whole entry): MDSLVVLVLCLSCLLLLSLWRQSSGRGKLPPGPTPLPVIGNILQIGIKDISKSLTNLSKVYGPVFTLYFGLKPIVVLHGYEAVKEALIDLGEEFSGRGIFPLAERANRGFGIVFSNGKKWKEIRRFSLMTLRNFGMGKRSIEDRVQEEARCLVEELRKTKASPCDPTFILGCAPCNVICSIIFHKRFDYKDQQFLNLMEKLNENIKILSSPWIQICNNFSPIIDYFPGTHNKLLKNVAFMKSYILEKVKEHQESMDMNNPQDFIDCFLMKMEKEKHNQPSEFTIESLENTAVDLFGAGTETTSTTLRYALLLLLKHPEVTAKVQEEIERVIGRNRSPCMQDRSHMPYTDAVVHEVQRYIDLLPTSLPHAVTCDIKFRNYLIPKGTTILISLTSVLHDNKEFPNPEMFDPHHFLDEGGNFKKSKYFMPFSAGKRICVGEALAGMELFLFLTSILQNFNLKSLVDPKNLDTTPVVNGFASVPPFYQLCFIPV
Sequence of Cytochrome P450 3A4 (P08684 whole entry): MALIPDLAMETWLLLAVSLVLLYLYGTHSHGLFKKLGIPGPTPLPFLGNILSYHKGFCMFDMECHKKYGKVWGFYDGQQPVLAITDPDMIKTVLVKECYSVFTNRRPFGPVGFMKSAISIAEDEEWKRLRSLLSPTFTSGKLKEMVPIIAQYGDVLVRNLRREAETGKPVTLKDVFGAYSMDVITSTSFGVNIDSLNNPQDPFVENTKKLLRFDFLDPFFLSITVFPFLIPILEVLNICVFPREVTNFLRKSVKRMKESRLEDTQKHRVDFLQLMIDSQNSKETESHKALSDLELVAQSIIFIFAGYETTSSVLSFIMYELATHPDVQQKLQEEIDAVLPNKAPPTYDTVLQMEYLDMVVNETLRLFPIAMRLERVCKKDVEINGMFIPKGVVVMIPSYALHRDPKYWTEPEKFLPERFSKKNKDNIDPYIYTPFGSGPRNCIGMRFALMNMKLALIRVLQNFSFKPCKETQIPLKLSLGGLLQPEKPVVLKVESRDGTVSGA

O=C(N1CC[C@@]2(S(=O)(=O)c3ccc(F)cc3)c3ccc(C(F)(C(F)(F)F)C(F)(F)F)cc3CC[C@@H]12)C1(O)CCS(=O)(=O)CC1
Vd [1]: 2.9 L/kg | EC50 [2]: 0.44 µM | AUC [3]: 58.2 µM·h | bioavailability [4]: 50% | IC50 [5]: > 10 µM | Cmax [6]: 2900 nM | inhibition in vivo at 10 mg/kg (Mus musculus [7]): 92% | IC50 (Cytochrome P450 3A4): > 20 µM | half-life [8]: > 2 h | Vd [9]: 2.6 L/kg | Efficacy (Mus musculus [10]): 88% | IC50 (Cytochrome P450 2C9): 10 µM | fraction unbound [11]: 0.011 | half-life [12]: 87 h | inhibition in vivo at 3 mg/kg (Mus musculus [13]): 28% | half-life [14]: 7 h | concentration at 24 h [15]: 1100 nM | IC50 (Cytochrome P450 1A2): > 20 µM | EC50 [16]: > 7.5 µM | Activity (Mus musculus [17]): Dose-dependent effect | ED50 (Mus musculus [17]; 240 h): 3 mg/kg | clearance [18]: 3.7 mL/min/kg
